Source: paper PMC9551036, “A selective and orally bioavailable VHL-recruiting PROTAC achieves SMARCA2 degradation in vivo” (Nature Communications, 2022)
Where “and” joins values, the source holds several entries; their conditions need not be identical. Identical values can stand only once. Like-named read-outs stand apart in the source and are kept apart here.

Legend:
SMARCA4 = SMARCA4 (Homo sapiens, UniProt P51532); test: Imaging-based SMARCA4 protein assay in RKO cells; assay type: cell-based; set-up: endogenous in cells; host or cells: RKO, HCT116, LU99, HCC-364, HCT-15, HCC4006, SK-N-AS; conditions: individual replicates
Protocol: 1250 cells per well in 60 µl medium were plated in flat bottom, poly-lysin coated 384-well plates (CellCarrier Ultra, Perkin Elmer). The next day, test compounds (10 µl of serial dilutions) and DMSO controls were diluted in DMEM medium such that the final DMSO content was <1% or were added using an ultrasound dispensing system. 4 wells were reserved for a background measurement. […] After aspirating the fixing solution, the cells were washed once with 25 µl PBS. 25 µl of blocking buffer (10% goat serum in PBS) was added and cells were incubated for 30 min, then washed once with PBS. Cells were stained with 20 µl of SMARCA2/4 primary antibody solution (Sigma #HPA029981 RRID:AB_10602406 1:1000 or Cell Signalling #52251 clone E9O6 RRID:AB_2799410 1:1000 in PBS with 10% FCS) for 2–4 h at room temperature. Cells were again washed once with PBS. […] The cell layer was then washed once with 25 µl PBS, the wells were filled with 25 µl PBS and the plates were sealed with an adhesive sheet. They were then imaged on the Opera Phoenix (mean intensity in the nucleus). Results were computed as percent of controls ((value of test compound − background)/(value of the negative control DMSO—background) multiplied by 100). EC50 values were computed using a 4-parametric logistic model.

SMARCA4^BD = molecular target: T1, SMARCA4^BD (Homo sapiens, UniProt P51532); test: SPR binding to immobilised SMARCA4 bromodomain
T1 construct: P51532, residues 1448–1569 with additional N-terminal SM residues; GST (TEV site) (N, cleaved yes); made in house; host or cells: Escherichia coli BL21(DE3); construct from SGC Toronto
Protocol: SMARCA4^BD was provided by the Structural Genomics Consortium (SGC), Toronto[32] and SMARCA2^BD and PRM1^BD5 were synthesised by GeneArt then subcloned into pDEST15 vectors (Invitrogen). The VCB complex was expressed and purified as described previously, with the modification that 0.3 mM IPTG was used for induction of expression. […] Both were stored in 20 mM 4-(2-hydroxyethyl)−1-piperazineethanesulfonic acid (HEPES), 150 mM sodium chloride and 1 mM tris(2-carboxyethyl)phosphine (TCEP) pH 7.5. SMARCA2^BD, SMARCA4^BD and PBRM1^BD5 were expressed in Escherichia coli BL21(DE3) as N-terminal GST fusion proteins with a TEV protease cleavage site. Expression and purification of these proteins has been described previously[32],[33]. Starter cultures were grown overnight at 37 °C in 10 mL of Luria-Bertani (LB) medium with ampicillin (100 μg/mL). The starter cultures were diluted (1:100) in Terrific Broth (TB) medium with ampicillin (100 μg/mL) and grown in a shaking incubator at 37 °C to an optical density (OD600) ~1 before the temperature was lowered for induction (to 23 °C for SMARCA2^BD or 18 °C for SMARCA4^BD and PRRM1^BD5). […] Cells were harvested by centrifugation and stored at −80 °C prior to purification. Cells were resuspended in Lysis buffer and lysed by sonication (20 pulses of 5 s for 4 min) using a Sonopuls HD 3080 (Bandelin, Berlin, Germany) or by homogenisation using a Stansted Pressure Cell Homogeniser (Stansted Fluid Power). The Lysis buffers were as follows: for SMARCA2^BD: 50 mM HEPES, 500 mM sodium chloride, 5% glycerol, 5 mM dithiothreitol (DTT); for SMARCA4^BD: 25 mM HEPES, 0.3 M sodium chloride, 5% glycerol, 10 mM DTT, pH 7.5; for PBRM1^BD5: 25 mM HEPES, 300 mM sodium chloride, 5% glycerol, 10 mM DTT, pH 7.8; in each case supplemented with complete protease inhibitors (Roche). Affinity purification was performed using Glutathione Sepharose 4B (GE Healthcare) in batch mode or on-column. […] For SMARCA2^BD, prior to TEV protease cleavage the eluted GST-tagged BD was first dialysed into desalting buffer (20 mM HEPES, 250 mM sodium chloride, pH 7.0 + 0.5% glycerol). Where TEV cleavage was performed in solution, a second affinity (GST-trap) column purification step was carried out to remove the GST-tag and uncleaved GST-tagged protein. Proteins were further purified by SEC (HiLoad Superdex-75, 16/600) (GE Healthcare) and stored in Storage buffer (for SMARCA2^BD: 20 mM HEPES, 150 mM sodium chloride, pH 7.5; for SMARCA4^BD: 10 mM HEPES, 0.5 M NaCl, 5% glycerol, pH 7.5; for PBRM1^BD5: 20 mM HEPES, 300 mM NaCl, 5 mM DTT, pH 7.8). For AlphaScreen assays, eluted GST-tagged BDs were purified directly by SEC in the respective storage buffers without TEV cleavage. All chromatography purification steps were performed either at room temperature or 4 °C using an ÄKTA FPLC purification system (GE Healthcare) or a plastic Econo-Pac column (Bio-Rad).
SPR data were acquired on Biacore 8K or T200 instruments (Cytiva). Target proteins were immobilised at 25 °C on CM5 chips by amine coupling (EDC/NHS, Cytiva) in HBS-P+ running buffer (pH 7.4), containing 2 mM TCEP. After surface activation with EDC/NHS (contact time 420 s, flow rate 10 µl/min) SMARCA2^BD and SMARCA4^BD at 0.01–0.05 mg/ml in coupling buffer (10 mM Na-Acetate pH 6.5, 0.005% TWEEN 20 and 50 µM PFI-3[13]) were immobilised to a density of 100–5000 Response Units (RU). The reference surface was subsequently deactivated using 1 M ethanolamine. For VCB immobilisation, streptavidin (Sigma Aldrich, prepared at 1 mg/ml in 10 mM sodium acetate coupling buffer, pH 5.0) was immobilised by amine coupling to a density of 3000–5000 RU after which biotinylated VCB complex (0.125 mM in running buffer) was streptavidin-coupled to a density of 100–500 RU. Biotinylated VCB was prepared as previously described[27]: in brief, the complex was mixed 1:1 with EZ-Link NHS–PEG4–biotin (Thermo Scientific) and incubated at room temperature for 1 h.

[1] = 18h, read-out: RKO (18h) SMARCA4 DC50
[2] = 4h, read-out: RKO (4h) SMARCA4 DC50

SMARCA4, sequence (P51532 whole entry): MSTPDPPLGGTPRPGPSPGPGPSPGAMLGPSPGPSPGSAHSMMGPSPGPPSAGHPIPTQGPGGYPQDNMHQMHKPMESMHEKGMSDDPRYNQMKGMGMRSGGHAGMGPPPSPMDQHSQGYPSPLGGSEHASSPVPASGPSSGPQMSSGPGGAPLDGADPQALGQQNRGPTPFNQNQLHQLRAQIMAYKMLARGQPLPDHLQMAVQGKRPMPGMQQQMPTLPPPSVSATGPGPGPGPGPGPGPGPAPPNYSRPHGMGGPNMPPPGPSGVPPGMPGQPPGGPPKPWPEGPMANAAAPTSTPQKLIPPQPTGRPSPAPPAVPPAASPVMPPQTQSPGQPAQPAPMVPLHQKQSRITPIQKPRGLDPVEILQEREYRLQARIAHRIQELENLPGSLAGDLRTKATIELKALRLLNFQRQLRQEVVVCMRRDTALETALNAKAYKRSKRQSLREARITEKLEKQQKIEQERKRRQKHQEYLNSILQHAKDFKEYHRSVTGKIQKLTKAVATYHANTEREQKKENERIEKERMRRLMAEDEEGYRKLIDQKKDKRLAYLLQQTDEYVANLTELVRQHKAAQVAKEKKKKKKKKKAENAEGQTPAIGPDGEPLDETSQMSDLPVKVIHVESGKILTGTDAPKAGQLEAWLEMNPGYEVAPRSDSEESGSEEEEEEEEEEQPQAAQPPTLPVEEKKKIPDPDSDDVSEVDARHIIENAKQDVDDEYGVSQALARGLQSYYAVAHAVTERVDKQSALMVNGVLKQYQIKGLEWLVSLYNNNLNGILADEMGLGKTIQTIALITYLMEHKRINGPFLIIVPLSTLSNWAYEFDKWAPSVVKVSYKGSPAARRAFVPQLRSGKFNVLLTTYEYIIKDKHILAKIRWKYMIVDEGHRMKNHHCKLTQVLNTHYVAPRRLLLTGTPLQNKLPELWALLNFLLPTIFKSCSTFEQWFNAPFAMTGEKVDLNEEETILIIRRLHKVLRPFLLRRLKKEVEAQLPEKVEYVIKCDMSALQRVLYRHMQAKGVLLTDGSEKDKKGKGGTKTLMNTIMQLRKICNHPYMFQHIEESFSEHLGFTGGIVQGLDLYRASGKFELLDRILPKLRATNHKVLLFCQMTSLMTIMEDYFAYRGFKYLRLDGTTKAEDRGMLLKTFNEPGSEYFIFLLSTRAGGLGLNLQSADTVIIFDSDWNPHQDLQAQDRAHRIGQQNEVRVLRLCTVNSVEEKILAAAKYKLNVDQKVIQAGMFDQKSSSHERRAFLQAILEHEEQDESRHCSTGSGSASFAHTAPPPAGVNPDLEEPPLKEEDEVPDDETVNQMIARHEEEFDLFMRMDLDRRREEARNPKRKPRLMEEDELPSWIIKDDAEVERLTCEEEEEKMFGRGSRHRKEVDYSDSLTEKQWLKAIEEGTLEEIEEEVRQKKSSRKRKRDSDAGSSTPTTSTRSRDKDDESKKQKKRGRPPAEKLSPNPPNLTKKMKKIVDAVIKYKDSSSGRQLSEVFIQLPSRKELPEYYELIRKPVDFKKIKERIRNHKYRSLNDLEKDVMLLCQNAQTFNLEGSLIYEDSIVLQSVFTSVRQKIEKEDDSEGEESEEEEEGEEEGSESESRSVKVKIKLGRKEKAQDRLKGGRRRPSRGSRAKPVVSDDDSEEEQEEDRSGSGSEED
T1 sequence (P51532 1448-1569): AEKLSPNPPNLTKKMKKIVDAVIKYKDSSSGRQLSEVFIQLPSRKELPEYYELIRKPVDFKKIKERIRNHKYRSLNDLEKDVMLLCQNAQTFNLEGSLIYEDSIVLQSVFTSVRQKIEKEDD

Cc1ncsc1-c1ccc(C(CCC(C)CCN2CCC(c3ccc4c(c3)n(C3CCCC3)c3nc(=O)c5c(Br)cccc5n43)CC2)NC(=O)C2CC(O)CN2C(=O)C(NC(=O)C2(F)CC2)C(C)(C)C)cc1 (centres unmarked) [ACBI2]
DC50 (SMARCA4; [1]): 37.7 nM and 30.3 nM and 30.7 nM and 30.9 nM and 26.2 nM and 33.5 nM and 25.2 nM and 30.8 nM and 63.4 nM and 30 nM and 29.1 nM and 27.7 nM
Kd (SMARCA4^BD; SMARCA4BD, mean ± SD): 314 ± 76 nM
Kd (SMARCA4^BD; individual replicates): 236 nM and 318 nM and 388 nM

O=c1nc2n(C3CCCC3)c3ccccc3n2c2cccc(Br)c12 [compound 1]
DC50 (SMARCA4; [2]): > 25000 nM
DC50 (SMARCA4; [1]): > 25000 nM
Kd (SMARCA4^BD; SMARCA4BD, mean ± SD): 1680 ± 317 nM
Kd (SMARCA4^BD; individual replicates): 1320 nM and 1830 nM and 1900 nM

Nc1cccc2c1c(=O)nc1n(C3CCCC3)c3ccccc3n21 [compound 2]
DC50 (SMARCA4; [2]): 2.7 µM and > 25 µM (2×)
DC50 (SMARCA4; [1]): > 25000 nM
Kd (SMARCA4^BD; SMARCA4BD, mean ± SD): 2750 ± 455 nM
Kd (SMARCA4^BD; individual replicates): 2.74 µM and 2.3 µM and 3.21 µM and > 2 µM (2×)

CN1CCC(c2ccc3c(c2)n(C2CCCC2)c2nc(=O)c4c(Br)cccc4n32)CC1 [compound 3]
DC50 (SMARCA4; [2]): > 25000 nM
DC50 (SMARCA4; [1]): 6980 nM and 15500 nM and 13600 nM
Kd (SMARCA4^BD; SMARCA4BD, mean ± SD): 58 ± 10 nM
Kd (SMARCA4^BD; individual replicates): 110 nM and 97.7 nM and 113 nM and 69.4 nM and 51 nM and 52.7 nM

Cc1ncsc1-c1ccc([C@H](COC(C)CN2CCC(c3ccc4c(c3)n(C3CCCC3)c3nc(=O)c5c(Br)cccc5n43)CC2)NC(=O)[C@@H]2C[C@@H](O)CN2C(=O)[C@@H](NC(=O)C2(F)CC2)C(C)(C)C)cc1 (some centres unmarked) [compound 9]
DC50 (SMARCA4; [2]): > 25000 nM
DC50 (SMARCA4; [1]): 912 nM and > 833 nM (2×) and 3.47 µM
Kd (SMARCA4^BD; SMARCA4BD, mean ± SD): 505 ± 184 nM
Kd (SMARCA4^BD; individual replicates): 361 nM and 443 nM and 712 nM

Cc1ncsc1-c1ccc([C@H](COC(C)CN2CCC(c3ccc4c(c3)n(C3CCCC3)c3nc(=O)c5c(Br)cccc5n43)CC2)NC(=O)[C@@H]2C[C@@H](O)CN2C(=O)[C@@H](NC(=O)C2(N(C)C)CC2)C(C)(C)C)cc1 (some centres unmarked) [compound 10]
DC50 (SMARCA4; [2]): > 25000 nM
DC50 (SMARCA4; [1]): 103 nM and 218 nM and 235 nM
Kd (SMARCA4^BD; SMARCA4BD, mean ± SD): 381 ± 28 nM
Kd (SMARCA4^BD; individual replicates): 359 nM and 413 nM and 372 nM

Cc1ncsc1-c1ccc([C@H](CCCCCN2CCC(c3ccc4c(c3)n(C3CCCC3)c3nc(=O)c5c(Br)cccc5n43)CC2)NC(=O)[C@@H]2C[C@@H](O)CN2C(=O)[C@@H](NC(=O)C2(F)CC2)C(C)(C)C)cc1 [compound 11]
DC50 (SMARCA4; [2]): 20 nM and 10.1 nM and 26.4 nM and 8.2 nM
DC50 (SMARCA4; [1]): 9.56 nM and 14.6 nM and 11.5 nM and 9.12 nM and 15.1 nM
Kd (SMARCA4^BD; SMARCA4BD, mean ± SD): 297 ± 147 nM
Kd (SMARCA4^BD; individual replicates): 201 nM and 223 nM and 466 nM

Cc1ncsc1-c1ccc([C@H](CC[C@H](C)CCN2CCC(c3ccc4c(c3)n(C3CCCC3)c3nc(=O)c5c(Br)cccc5n43)CC2)NC(=O)[C@@H]2C[C@H](O)CN2C(=O)[C@@H](NC(=O)C2(F)CC2)C(C)(C)C)cc1 [compound 12]
DC50 (SMARCA4; [2]): > 25000 nM
DC50 (SMARCA4; [1]): 4950 nM and 4740 nM and 8100 nM and 6070 nM
Kd (SMARCA4^BD; SMARCA4BD, mean ± SD): 362 ± 52 nM
Kd (SMARCA4^BD; individual replicates): 306 nM and 408 nM and 370 nM

CN1CCN(c2nc(=O)c3c(Cl)cccc3o2)CC1 [compound 13]
DC50 (SMARCA4; [2]): > 25000 nM
DC50 (SMARCA4; [1]): > 25000 nM
Kd (SMARCA4^BD; SMARCA4BD, mean ± SD): 35600 ± 346 nM
Kd (SMARCA4^BD; individual replicates): 31600 nM and 37500 nM and 37700 nM

CN1CCN(c2nc(=O)c3ccccc3o2)CC1 [compound 14]
DC50 (SMARCA4; [2]): > 25000 nM
DC50 (SMARCA4; [1]): > 25000 nM
Kd (SMARCA4^BD; individual replicates): > 200000 nM and 140000 nM
